By IC50 is commonly meant the concentration that inhibits the measured activity by half.

One assay deals with IDH1 R132H (Homo sapiens, UniProt O75874, R132H). As to the kind of experiment: In vitro NADPH depletion assay for IDH1m R132H inhibitors. The settings on record: enzyme, diaphorase/resazurin readout, read-out: IDH R132H IC50. Type of assay: biochemical. Here is the method: (§1) A test compound is prepared as 10 mM stock in DMSO and diluted to 50× final concentration in DMSO, for a 50 μl reaction mixture. IDH enzyme activity converting alpha-ketoglutarate to 2-hydroxyglutaric acid is measured using a NADPH depletion assay. In the assay the remaining cofactor is measured at the end of the reaction with the addition of a catalytic excess of diaphorase and resazurin, to generate a fluorescent signal in proportion to the amount of NADPH remaining. IDH1-R132 homodimer enzyme is diluted to […] in 40 μl of Assay Buffer(150 mM NaCl, 20 mM Tris-Cl pH 7.5, 10 mM MgCl2, 0.05% BSA, 2 mM b-mercaptoethanol); 1 μl of test compound dilution in DMSO is added and the mixture is incubated for 60 minutes at room temperature. The reaction is started with the addition of 10 μl of Substrate Mix ([…], 5 mM alpha-ketoglutarate, in Assay Buffer) and the mixture is incubated for 90 minutes at room temperature. The reaction is terminated with the addition of 25 μl of Detection Buffer (36 μg/ml diaphorase, […], in 1× Assay Buffer), and is incubated for 1 minute before reading on a SpectraMax platereader at Ex544/Em590.
Sequence of IDH1 R132H (O75874 whole entry R132H): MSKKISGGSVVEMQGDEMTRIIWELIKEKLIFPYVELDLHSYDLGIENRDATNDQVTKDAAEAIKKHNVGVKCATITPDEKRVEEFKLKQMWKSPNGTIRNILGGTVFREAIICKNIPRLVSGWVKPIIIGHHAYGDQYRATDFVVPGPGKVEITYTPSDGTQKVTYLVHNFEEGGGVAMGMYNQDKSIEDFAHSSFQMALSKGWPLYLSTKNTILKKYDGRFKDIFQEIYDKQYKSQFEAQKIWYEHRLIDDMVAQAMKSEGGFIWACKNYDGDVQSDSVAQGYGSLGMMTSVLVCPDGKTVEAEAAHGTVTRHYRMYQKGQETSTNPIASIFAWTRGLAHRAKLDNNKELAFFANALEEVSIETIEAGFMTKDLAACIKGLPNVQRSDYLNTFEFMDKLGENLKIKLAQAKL
(§2) Representative compounds of formula I set forth in Table 1 were tested in this assay and the results are set forth below in Table 3.

Another assay has as its system HT1080 cells. The experiment in a line: Cellular assay, inhibition of 2-HG production (LC-MS) in HT1080 cells. It is filed as cell-based. The settings on record: Homo sapiens, HT-1080, 48 hours, LC-MS of media. On the procedure:
Cells (HT1080 or U87MG) are grown in T125 flasks in DMEM containing 10% FBS, 1× penicillin/streptomycin and 500 ug/mL G418 (present in U87MG cells only). They are harvested by trypsin and seeded into 96 well white bottom plates at a density of 5000 cell/well in 100 μl/well in DMEM with 10% FBS. No cells are placed in columns 1 and 12. Cells are incubated overnight at 37° C. in 5% CO2. The next day test compounds are made up at 2× the final concentration and 100 μl are added to each cell well. The final concentration of DMSO is 0.2% and the DMSO control wells are plated in row G. The plates are then placed in the incubator for 48 hours. At 48 hours, 100 μl of media is removed from each well and analyzed by LC-MS for 2-HG concentrations. The cell plate is placed back in the incubator for another 24 hours. At 72 hours post compound addition, 10 mL/plate of Promega Cell Titer Glo reagent is thawed and mixed. The cell plate is removed from the incubator and allowed to equilibrate to room temperature. Then 100 μl of Promega Cell Titer Glo reagent is added to each well of media. The cell plate is then placed on an orbital shaker for 10 minutes and then allowed to sit at room temperature for 20 minutes. The plate is then read for luminescence with an integration time of 500 ms.
The IC50 for inhibition of 2-HG production (concentration of test compound to reduce 2HG production by 50% compared to control) in these two cell lines for various compounds of formula I is set forth in Table 2 above.

The target in a further assay is IDH1 R132C (Homo sapiens, UniProt O75874, R132C). As to the kind of experiment: In vitro NADPH depletion assay for IDH1m R132C inhibitors. The settings on record: enzyme, diaphorase/resazurin readout, read-out: IDH R132C IC50. It is filed as biochemical. On the procedure: as §1
Sequence of IDH1 R132C (O75874 whole entry R132C): as the sequence (O75874 whole entry R132H) above, with H132C counted along it
Compounds are assayed for their activity against IDH1 R132C following the same assay as above with the following modifications: Assay Buffer is (50 mM potassium phosphate, pH 6.5; 40 mM sodium carbonate, 5 mM MgCl2, 10% glycerol, 2 mM b-mercaptoethanol, and 0.03% BSA). The concentration of NADPH and alpha-ketoglutarate in the Substrate Buffer is 20 μM and 1 mM, respectively.
as §2

On to `COC(=O)NCC(=O)N(c1cccc(F)c1)C(C(=O)NC1CCC(F)CC1)c1ccccc1Cl` (stereo not shown) [Compound 81], for which the IC50 at IDH1 R132H, in the assay on HT1080 cells and on IDH1 R132C was 100 to 500 nM each time.

On to `O=C1C[C@@H](C(=O)N(c2cccc(F)c2)[C@H](C(=O)NC2CC(F)(F)C2)c2ccccc2Cl)N(c2ncccn2)C1` [Compound 107], for which the 50% inhibitory concentration (IC50) at IDH1 R132H, with HT1080 cells and at IDH1 R132C was no more than 100 nM in each case.

With `COC(=O)NCC(=O)N(c1cccc(F)c1)C(C(=O)NC1CC(F)(F)C1)c1ccccc1Cl` (stereo not shown) [Compound 73, methyl 2-((1-(2-chlorophenyl)-2-(3,3-difluorocyclobutylamino)-2-oxoethyl)(3-fluorophenyl)amino)-2-oxoethylcarbamate], the half-maximal inhibitory concentration (IC50) at IDH1 R132H lay within 100 to 500 nM; in the assay on HT1080 cells it was 500 to 1000 nM; on IDH1 R132C it was 100 to 500 nM.

On to `COC(=O)NCC(=O)N(c1cccc(F)c1)[C@H](C(=O)N[C@@H]1CCCCC1(F)F)c1ccccc1Cl` [Compound 83], for which the figures for the IC50 at IDH1 R132H, with HT1080 cells and at IDH1 R132C were 100 to 500 nM, 500 to 1000 nM and 100 to 500 nM, respectively.

For the compound `CC(C)(C)OC(=O)NCC(=O)N(c1cccc(F)c1)C(C(=O)NC1CCC(F)(F)CC1)c1ccccc1Cl` (stereo not shown) [Compound 93], the IC50 was 100 to 500 nM on IDH1 R132H, 1000 to 2000 nM with HT1080 cells and 100 to 500 nM on IDH1 R132C.

`O=C(NC1CC(F)(F)C1)[C@H](c1ccccc1Cl)N(C(=O)[C@H](CO)Nc1ncccn1)c1cccc(F)c1` [Compound 109]: the half-inhibitory concentration (IC50) on IDH1 R132H, with HT1080 cells and on IDH1 R132C was no more than 100 nM throughout.

Take `O=C(NC1CCCCC1)C(c1ccc(F)cc1F)N(C(=O)Cn1cnc(Cl)c1Cl)c1cccc(F)c1` (stereo not shown) [Compound 29]: the 50% inhibitory concentration (IC50) at IDH1 R132H was no more than 100 nM; with HT1080 cells, 100 to 500 nM; at IDH1 R132C, no more than 100 nM.

With `COC(=O)N(C)CC(=O)N(c1cccc(F)c1)C(C(=O)NC1CC(F)(F)C1)c1ccccc1Cl` (stereo not shown) [Compound 96], the IC50 on IDH1 R132H is no more than 100 nM; in the assay with HT1080 cells, 500 to 1000 nM; at IDH1 R132C, 100 to 500 nM.

Take `COC(=O)N1CCOC[C@H]1C(=O)N(c1cccc(F)c1)[C@H](C(=O)NC1CCCCC1)c1ccccc1C` [Compound 23]: the IC50 with HT1080 cells and at IDH1 R132C was no more than 100 nM throughout.

Regarding `O=C(NC1CC(F)(F)C1)[C@H](c1ccccc1Cl)N(C(=O)[C@@H]1C[C@@H](O)CN1c1ncccn1)c1cccc(F)c1` [Compound 100, (2S,4R)—N—((S)-1-(2-chlorophenyl)-2-(3,3-difluorocyclobutyl-amino)-2-oxoethyl)-N-(3-fluorophenyl)-4-hydroxy-1-(pyrimidin-2-yl)pyrrolidine-2-carbox-amide], the IC50 was no more than 100 nM at IDH1 R132H, 100 to 500 nM in the assay on HT1080 cells and no more than 100 nM on IDH1 R132C.

Regarding `COC(=O)N[C@@H](CO)C(=O)N(c1cccc(F)c1)[C@@H](C(=O)NC1CCCCC1)c1ccccc1Cl` [Compound 85], the IC50 at IDH1 R132H was no more than 100 nM; in the assay with HT1080 cells, 500 to 1000 nM; at IDH1 R132C, 100 to 500 nM.

Take `O=C(NC1CC(F)(F)C1)C(c1ccccc1Cl)N(C(=O)Cn1cnc(Cl)c1Cl)c1cccc(F)c1` (stereo not shown) [Compound 35]: the values for the IC50 on IDH1 R132H, in the assay with HT1080 cells and at IDH1 R132C were no more than 100 nM, 100 to 500 nM and no more than 100 nM, respectively.

Turning to `C[C@H]1CC[C@@H](C(=O)N(c2cccc(F)c2)[C@@H](C(=O)NC2CCC(F)(F)CC2)c2ccccc2Cl)N1c1ncccn1` [Compound 110, (2S,5S)—N—((R)-1-(2-chlorophenyl)-2-(4,4-difluorocyclohexylamino)-2-oxoethyl)-N-(3-fluorophenyl)-5-methyl-1-(pyrimidin-2-yl)pyrrolidine-2-carboxamide], the 50% inhibitory concentration (IC50) on IDH1 R132H is no more than 100 nM; in the assay with HT1080 cells it was 100 to 500 nM; on IDH1 R132C it was no more than 100 nM.

For `COC(=O)N1CCC[C@H]1C(=O)N(c1cccc(F)c1)[C@H](C(=O)NC1CC(F)(F)C1)c1c(Cl)cccc1Cl` [Compound 66], the concentration for half-maximal inhibition (IC50) on IDH1 R132H, in the assay with HT1080 cells and on IDH1 R132C was 100 to 500 nM in each case.

Regarding `COC(=O)N1[C@H](C(=O)N(c2cccc(F)c2)[C@H](C(=O)NC2CC(F)(F)C2)c2ccccc2Cl)CCC1(C)C` (single isomer, unassigned) [Compound 115], the IC50 fell in the range of 100 to 500 nM on IDH1 R132H, 500 to 1000 nM with HT1080 cells and 100 to 500 nM on IDH1 R132C.

For the compound `COC(=O)NCC(=O)N(c1cccc(F)c1)C(C(=O)NC1CCC(F)(F)CC1)c1ccccc1Cl` (stereo not shown) [Compound 92], the concentration for half-maximal inhibition (IC50) at IDH1 R132H is no more than 100 nM; in the assay with HT1080 cells, 100 to 500 nM; at IDH1 R132C it was no more than 100 nM.

Turning to `CCOC(=O)NCC(=O)N(c1cccc(F)c1)C(C(=O)NC1CC(F)(F)C1)c1ccccc1Cl` (stereo not shown) [Compound 75], the half-maximal inhibitory concentration (IC50) on IDH1 R132H was in the range of 100 to 500 nM; in the assay on HT1080 cells, 500 to 1000 nM; at IDH1 R132C, 100 to 500 nM.

With `O=C(NC1CC(F)(F)C1)[C@@H](c1ccccc1Cl)N(C(=O)[C@H](CO)Nc1ncccn1)c1cccc(F)c1` [Compound 108], the IC50 is 100 to 500 nM on IDH1 R132H, 100 to 500 nM in the assay on HT1080 cells and no more than 100 nM at IDH1 R132C.

Regarding `COCCO[C@@H]1C[C@@H](C(=O)N(c2cccc(F)c2)[C@H](C(=O)NC2CC(F)(F)C2)c2ccccc2Cl)N(C(=O)OC)C1` [Compound 79, (2S,4R)-methyl 2-(((S)-1-(2-chlorophenyl)-2-((3,3-difluoro-cyclobutyl)amino)-2-oxoethyl)(3-fluorophenyl)carbamoyl)-4-(2-methoxyethoxy)pyrrolidine-1-carboxylate], the half-maximal inhibitory concentration (IC50) on IDH1 R132H, with HT1080 cells and at IDH1 R132C was no more than 100 nM each time.

Regarding `C=CC(=O)Nc1cccc(N(C(=O)Cc2cccnc2)C(C(=O)NC2CC(F)(F)C2)c2ccccc2Cl)c1` (stereo not shown) [Compound 88, N-(3-(N-(1-(2-chlorophenyl)-2-(3,3-difluorocyclobutylamino)-2-oxoethyl)-2-(pyridin-3-yl)acetamido)phenyl)acrylamide], the IC50 on IDH1 R132H was in the range of 500 to 1000 nM; in the assay on HT1080 cells it was 1000 to 2000 nM; on IDH1 R132C it was 100 to 500 nM.

With `C[C@H]1CC[C@@H](C(=O)N(c2cccc(F)c2)[C@H](C(=O)NC2CC(F)(F)C2)c2ccccc2Cl)N1c1ncccn1` [Compound 113, (2S,5S)—N—((S)-1-(2-chlorophenyl)-2-(3,3-difluorocyclobutylamino)-2-oxoethyl)-N-(3-fluorophenyl)-5-methyl-1-(pyrimidin-2-yl)pyrrolidine-2-carboxamide], the IC50 was no more than 100 nM on IDH1 R132H, 100 to 500 nM with HT1080 cells and no more than 100 nM at IDH1 R132C.

With `COC(=O)NCC(=O)N(c1cccc(F)c1)C(C(=O)NC1CC(F)(F)C1)c1c(F)cccc1Cl` (stereo not shown) [Compound 77], the IC50 at IDH1 R132H was 100 to 500 nM; at IDH1 R132C it was 500 to 1000 nM.

For the compound `O=C(NC1CC(F)(F)C1)C(c1ccccc1Cl)N(C(=O)Cn1cncn1)c1cccc(F)c1` (stereo not shown) [Compound 36], the figures for the IC50 on IDH1 R132H and on IDH1 R132C were 100 to 500 nM and 1000 to 2000 nM, respectively.

Consider `O=C(NC1CC(F)(F)C1)[C@H](c1ccccc1Cl)N(C(=O)[C@@H]1CCN1c1ncccn1)c1cccc(F)c1` [Compound 103], for which the figures for the half-maximal inhibitory concentration (IC50) at IDH1 R132H and at IDH1 R132C were 1000 to 2000 nM and 500 to 1000 nM, respectively.

For `COC(=O)N1CCN(C(C)=O)C[C@H]1C(=O)N(c1cccc(F)c1)[C@@H](C(=O)NC1CC(F)(F)C1)c1ccccc1Cl` [Compound 67, (S)-Methyl 4-acetyl-2-(((R)-1-(2-chlorophenyl)-2-(3,3-difluorocyclobutylamino)-2-oxoethyl)(3-fluorophenyl)carbamoyl)piperazine-1-carboxylate], the IC50 on IDH1 R132H and on IDH1 R132C was 100 to 500 nM in each case.

These data come from patent publication US20160304556A1, “[…] ACTIVE COMPOUNDS AND THEIR METHODS OF USE” (AGIOS PHARMACEUTICALS, INC, priority 2012, published 2016).
